Values after ≈ are worked out from the molar mass of the structure shown. Active and inactive are the calls of the source. Unless noted, the calls are words filed in the database; no cut-off is given here.
What was measured:
Vero = test: Cytotoxicity against african green monkey Vero cells up to 4.6 ug/ml after 48 hrs by neutral red assay; assay type: cell-based; settings: chlorocebus sabaeus
Leishmania donovani [1] = test: Antileishmanial activity against axenic amastigote of Leishmania donovani after 72 hrs by alamar blue assay; assay type: functional, organism-based
Leishmania donovani [2] = test: Antileishmanial activity against promastigote of Leishmania donovani after 72 hrs by alamar blue assay; assay type: functional, organism-based
Staphylococcus aureus [3] = test: Antibacterial activity against methicillin-resistant Staphylococcus aureus ATCC 33591 by CLSI method; assay type: functional, organism-based
[4] = test system: Mycobacterium intracellulare; test: Antibacterial activity against Mycobacterium intracellulare ATCC 23068 by alamar blue assay; assay type: functional, organism-based
Staphylococcus aureus [5] = test: Antibacterial activity against Staphylococcus aureus ATCC 29213 by CLSI method; assay type: functional, organism-based
Cryptococcus neoformans = test: Antifungal activity against Cryptococcus neoformans ATCC 90113 by CLSI method; assay type: functional, organism-based
Aspergillus fumigatus = test: Antifungal activity against Aspergillus fumigatus ATCC 204305 by CLSI method; assay type: functional, organism-based
Candida albicans = test: Antifungal activity against Candida albicans ATCC 90028 by CLSI method; assay type: functional, organism-based
[6] = Leishmania donovani, 72 h, read-out: IC50
[7] = Staphylococcus aureus, ATCC 33591, read-out: IC50
[8] = Mycobacterium intracellulare, ATCC 23068
[9] = Mycobacterium intracellulare, ATCC 23068, read-out: IC50

Compound	Activity (Vero)	IC90 (Leishmania donovani [1]; Leishmania donovani, 72 h) [µM]	IC50 (Leishmania donovani [1]; [6]) [µM]	IC90 (Leishmania donovani [2]; Leishmania donovani, 72 h) [µM]	IC50 (Leishmania donovani [2]; [6]) [µM]	IC50 (Leishmania donovani [1])	IC90 (Leishmania donovani [1])	other results
COc1ccc2[nH]cc(C(c3cccs3)c3c[nH]c4ccc(OC)cc34)c2c1	Non-toxic	84.8	59	65.8	38.1	–	–	–
COc1ccc2[nH]cc(C(c3c(Cl)cccc3Cl)c3c[nH]c4ccc(OC)cc34)c2c1	Non-toxic	–	–	–	–	Not Active	inactive	MBC (Staphylococcus aureus [3]): inactive; MIC (Staphylococcus aureus [3]): inactive; IC50 (Staphylococcus aureus [3]; [7]): 17.2 µM; IC50 (Leishmania donovani [2]): Not Active; IC90 (Leishmania donovani [2]): inactive; IC50 [4]: Not Active; MBC [4]: inactive; MIC [4]: inactive; IC50 (Staphylococcus aureus [5]): 7.51 µM; MBC (Staphylococcus aureus [5]): inactive; MIC (Staphylococcus aureus [5]): inactive
Ic1ccc2[nH]cc(C(c3c4ccccc4cc4ccccc34)c3c[nH]c4ccc(I)cc34)c2c1	Non-toxic	–	–	–	–	Not Active	inactive	IC50 (Leishmania donovani [2]): Not Active; IC90 (Leishmania donovani [2]): inactive
O=[N+]([O-])c1ccc(C(c2c[nH]c3ccccc23)c2c[nH]c3ccccc23)cc1	Non-toxic	72.3	40.8	54.3	15.9	–	–	–
COc1ccc2[nH]cc(C(c3cccc4ccccc34)c3c[nH]c4ccc(OC)cc34)c2c1	Non-toxic	–	33.2	82.9	66.5	–	inactive	IC50 (Staphylococcus aureus [3]): Not Active; MBC (Staphylococcus aureus [3]): inactive; MIC (Staphylococcus aureus [3]): inactive; IC50 [4]: Not Active; MBC [4]: inactive; MIC [4]: inactive; IC50 (Staphylococcus aureus [5]): 39.7 µM; MBC (Staphylococcus aureus [5]): inactive; MIC (Staphylococcus aureus [5]): inactive
Ic1ccc2[nH]cc(C(c3cccc4ccccc34)c3c[nH]c4ccc(I)cc34)c2c1	Non-toxic	–	–	–	–	Not Active	inactive	IC50 (Leishmania donovani [2]): Not Active; IC90 (Leishmania donovani [2]): inactive
COc1ccc2[nH]cc(C(c3c4ccccc4cc4ccccc34)c3c[nH]c4ccc(OC)cc34)c2c1	Non-toxic	–	39.8	64.9	34.6	–	inactive	–
COc1ccc2[nH]cc(C(c3ccc(Br)cc3)c3c[nH]c4ccc(OC)cc34)c2c1	Non-toxic	–	–	58.5	32.7	Not Active	inactive	–
Fc1ccc(C(c2c[nH]c3ccc(I)cc23)c2c[nH]c3ccc(I)cc23)cc1Br	Non-toxic	31.4	18.2	18.2	9.84	–	–	IC50 (Cryptococcus neoformans): 16.8 µM; MFC (Cryptococcus neoformans): 29.9 µM (≈ 20 µg/mL); MIC (Cryptococcus neoformans): 29.9 µM (≈ 20 µg/mL); Activity (Aspergillus fumigatus): inactive; Activity (Candida albicans): inactive
COc1cc(C(c2c[nH]c3ccccc23)c2c[nH]c3ccccc23)ccc1O	Non-toxic	–	75	98.9	86	–	inactive	–
COc1ccc2[nH]cc(C(c3ccc(F)c(Br)c3)c3c[nH]c4ccc(OC)cc34)c2c1	Non-toxic	66.8	47.6	46.6	15.8	–	–	MBC (Staphylococcus aureus [3]): inactive; MIC (Staphylococcus aureus [3]): inactive; IC50 (Staphylococcus aureus [3]; [7]): 4.67 µM; MBC [4]: inactive; MIC [4, 8]: 41.8 µM (≈ 20 µg/mL); IC50 [4, 9]: 39.6 µM; IC50 (Staphylococcus aureus [5]): 3.45 µM; MBC (Staphylococcus aureus [5]): inactive; MIC (Staphylococcus aureus [5]): 10.5 µM (≈ 5.03 µg/mL)
Clc1cccc(Cl)c1C(c1c[nH]c2ccc(I)cc12)c1c[nH]c2ccc(I)cc12	Non-toxic	–	–	–	–	Not Active	inactive	IC50 (Leishmania donovani [2]): Not Active; IC90 (Leishmania donovani [2]): inactive
C[C@@H]1[C@H](O)[C@@H](C)/C=C/C=C/C=C/C=C/C=C/C=C/C=C/[C@H](O[C@@H]2O[C@H](C)[C@@H](O)[C@H](N)[C@@H]2O)C[C@@H]2O[C@](O)(C[C@@H](O)C[C@@H](O)[C@H](O)CC[C@@H](O)C[C@@H](O)CC(=O)O[C@H]1C)C[C@H](O)[C@H]2C(=O)O [AMPHOTERICIN B]	–	[…]	–	0.35	–	–	–	IC50 (Cryptococcus neoformans): 0.85 µM; MFC (Cryptococcus neoformans): 1.35 µM (≈ 1.25 µg/mL); MIC (Cryptococcus neoformans): 1.35 µM (≈ 1.25 µg/mL); Activity (Aspergillus fumigatus): inactive; Activity (Candida albicans): inactive
COc1ccc2[nH]cc(C(c3ccc(O)cc3)c3c[nH]c4ccc(OC)cc34)c2c1	Non-toxic	76.3	42.9	91	81.1	–	–	–
COc1ccc2[nH]cc(C(c3ccc([N+](=O)[O-])o3)c3c[nH]c4ccc(OC)cc34)c2c1	Non-toxic	–	–	60	37.3	Not Active	inactive	–
c1ccc2c(C(c3c[nH]c4ccccc34)c3c[nH]c4ccccc34)c3ccccc3cc2c1	Non-toxic	–	53.4	91.9	82	–	inactive	–
N=C(N)c1ccc(OCCCCCOc2ccc(C(=N)N)cc2)cc1 [PENTAMIDINE]	–	14.3	–	6.21	3.29	–	–	–
O=[N+]([O-])c1ccc(C(c2c[nH]c3ccc(I)cc23)c2c[nH]c3ccc(I)cc23)o1	Non-toxic	28.9	25.3	6.22	3.02	–	–	MBC (Staphylococcus aureus [3]): inactive; MIC (Staphylococcus aureus [3]; Staphylococcus aureus, ATCC 33591): 32.8 µM (≈ 20 µg/mL); IC50 (Staphylococcus aureus [3]; [7]): 11.3 µM; IC50 [4]: Not Active; MBC [4]: inactive; MIC [4]: inactive; IC50 (Staphylococcus aureus [5]): 7.52 µM; MBC (Staphylococcus aureus [5]): 16.4 µM (≈ 9.99 µg/mL); MIC (Staphylococcus aureus [5]): 16.4 µM (≈ 9.99 µg/mL)
COc1ccc2[nH]cc(C(c3ccc(O)c(OC)c3)c3c[nH]c4ccc(OC)cc34)c2c1	Non-toxic	–	–	–	–	Not Active	inactive	IC50 (Leishmania donovani [2]): Not Active; IC90 (Leishmania donovani [2]): inactive
O=C(O)c1cn(C2CC2)c2cc(N3CCNCC3)c(F)cc2c1=O [CIPROFLOXACIN]	–	–	–	–	–	–	–	MBC [4, 8]: 3.02 µM (≈ 1 µg/mL); IC50 [4, 9]: 1 µM
COc1ccc(C(c2c[nH]c3ccccc23)c2c[nH]c3ccccc23)cc1Br	Non-toxic	–	–	–	82.9	Not Active	inactive	MBC (Staphylococcus aureus [3]): inactive; MIC (Staphylococcus aureus [3]): inactive; IC50 (Staphylococcus aureus [3]; [7]): 31.5 µM; IC90 (Leishmania donovani [2]): inactive; IC50 [4]: Not Active; MBC [4]: inactive; MIC [4]: inactive; IC50 (Staphylococcus aureus [5]): 7.84 µM; MBC (Staphylococcus aureus [5]): inactive; MIC (Staphylococcus aureus [5]): inactive
O=[N+]([O-])c1ccc(C(c2c[nH]c3ccc(I)cc23)c2c[nH]c3ccc(I)cc23)cc1	Non-toxic	38.4	8.37	10.2	7.88	–	–	–
Fc1cc(F)cc(C(c2c[nH]c3ccc(I)cc23)c2c[nH]c3ccc(I)cc23)c1	Non-toxic	44.5	23.2	41.2	24.2	–	–	–
COc1ccc2[nH]cc(C(c3ccc([N+](=O)[O-])cc3)c3c[nH]c4ccc(OC)cc34)c2c1	Non-toxic	64.2	14.7	18.8	12.1	–	–	–
